Data reported in US7777033B2, “Monomer with anti-microbial character, polymer using the same, and manufacturing method thereof” (Micro Science Tech Co., Ltd., priority 2005, dated 2010).

Assays:
[1] = test system: S. aureus (KCTC 1621); assay: Strain reduction rate determination (shake flask method); type: cell-based; details: for Right After Inoculation (number of bacteria): 5 minutes after inoculation, 0.1 g powder or 2 ml stock solution; for After 24 hours (number of bacteria): 24 hours incubation with agitation; for Strain Reduction Rate: vs control after 24 hours
Experimental: (§1) The antimicrobial test was conducted by strain reduction rate determination (shake flask method). As the samples, 0.1 g of each of the compounds of Examples 9, 13, 15, and 18 to 23 was used in the form of powder, and in the case of Examples 28 to 31, 2 ml of their stock solution was used. The buffer solutions used in the antibacterial test were those prepared by dissolving each of 28.39 g of […] and 23.99 g of NaH2PO4 in 1000 ml of purified water, blending them in the volume of 72 ml and 28 ml respectively, adding 5 g of NaCl thereto, and then pouring purified water thereinto to adjust their total volume to 1000 ml. As the control, the same bacterial strains, to which no samples were added, were used. The samples were mixed with bacterial strain inocula (5.0×105), which were then incubated while agitating for 24 hours and then incubated on agar media. The reduction rate of strain number was determined by the following Equation 1. (Reduction Rate %)={(A−B)/A}×100 [Equation 1]
(§2) A: Number of Bacteria in Control after 24 Hours
(§3) B: Number of Bacteria in Sample after 24 Hours
(§4) In Table 6 above, “right after inoculation” refers to after 5 minutes from the time the bacterial strains were inoculated.

[2] = test system: E. coli (KCTC 1682); assay: as above; type: cell-based; details: for Right After Inoculation (number of bacteria): 5 minutes after inoculation, 0.1 g powder or 2 ml stock solution; for After 24 hours (number of bacteria): 24 hours incubation with agitation; for Strain Reduction Rate: vs control after 24 hours
Experimental: as §1, §2, §3, §4

[3] = Light stability test (colour change over 3 months); type: physicochemical; details: for Discoloration: installed in the place where light was shut off
Description: The antimicrobial monomers manufactured in Examples 9 and 10 and the antimicrobial acrylic copolymers manufactured in Examples 17 to 23 were used as samples. 3 g of each sample were respectively put in lucid glass test tubes, which were then placed under a direct ray of light. Also, according to the same method, the samples were collected in lucid glass test tubes which were then sealed with aluminum foil and installed in a place where indoor light was shut off.

Row | SMILES | Right After Inoculation (number of bacteria) [1] | After 24 hours (number of bacteria) [1] | Strain Reduction Rate [1] [%] | Right After Inoculation (number of bacteria) [2] | After 24 hours (number of bacteria) [2] | Strain Reduction Rate [2] [%] | Colour, Four Weeks Later ([3]; Direct Ray of Light) | Colour, Initial ([3]; Direct Ray of Light) | Colour, Ten Weeks Later ([3]; Direct Ray of Light) | Colour, Twelve Weeks Later ([3]; Direct Ray of Light) | Colour, Two Weeks Later ([3]; Direct Ray of Light) | Colour, Eight Weeks Later ([3]; Light Shut Off) | Colour, Four Weeks Later ([3]; Light Shut Off) | Colour, Initial ([3]; Light Shut Off) | Colour, Six Weeks Later ([3]; Light Shut Off) | Colour, Ten Weeks Later ([3]; Light Shut Off) | Colour, Twelve Weeks Later ([3]; Light Shut Off) | Colour, Two Weeks Later ([3]; Light Shut Off) | Discoloration [3]
1 | C=C(C)C(=O)N1CCN(c2cc3c(cc2F)c(=O)c(C(=O)O)cn3C2CC2)CC1 [Example 13, 1-cyclopropyl-6-fluoro-1,4-dihydro-7-[4-(2-methyl-1-oxo-2-propenyl)-1-piperazinyl]-4-oxo-3-quinoline carboxylic acid] | not detected | not detected | 100 | not detected | not detected | 100 | – | – | – | – | – | – | – | – | – | – | – | – | –
2 | C=C(C)C(=O)OCC(O)CN1CCN(c2cc3c(cc2F)c(=O)c(C(=O)O)cn3C2CC2)CC1 (centres unmarked) [Example 9, 1-cyclopropyl-6-fluoro-1,4-dihydro-7-[4-(2-hydroxy-6-methyl-4-oxa-5-oxo-6-heptenyl)-1-piperazinyl]-4-oxo-3-quinoline carboxylic acid] | not detected | not detected | 100 | not detected | not detected | 100 | orange | white | brown | brown | yellow | white | white | white | white | white | white | white | not discolored
3 | C=C(C)C(=O)OCC(O)CN1CCN(c2cc3c(cc2F)c(=O)c(C(=O)O)cn3CC)CC1 (centres unmarked) [Example 10, 1-ethyl-6-fluoro-1,4-dihydro-7-[4-(2-hydroxy-6-methyl-4-oxa-5-oxo-6-heptenyl)-1-piperazinyl]-4-oxo-3-quinoline carboxylic acid] | – | – | – | – | – | – | orange | white | brown | brown | yellow | white | white | white | white | white | white | white | not discolored
